Columns and labels:
[1] = Aerosol performance by Next Generation Impactor (NGI) from multidose dry powder inhaler; format: physicochemical; conditions: Example 3 powder formulation; for Mid Fine particle Fraction: 2.0 to 5.0 microns; for Delivered Dose: multidose DPI of WO 2004/012801, 3 doses; for Mid Fine Particle Mass: particle size between 2.0 and 5.0 microns; for Fine Particle Mass: particle size equal to or lower than 5.0 microns; for Fine Particle Fraction: ratio fine particle mass to delivered dose
Description: After aerosolization of 3 doses from the inhaler device, the NGI apparatus was disassembled and the amounts of drug deposited in the stages were recovered by washing with a solvent mixture and then quantified by High-Performance Liquid Chromatography (HPLC). […] (v) the fine particle fraction (FPF) which is the ratio between the fine particle mass and the delivered dose; and (vi) the MMAD.

[2] = micronized active ingredient as used in Example 3
Description: The size of the particles active is determined by measuring the characteristic equivalent sphere diameter, known as volume diameter, by laser diffraction.
Microparticles as obtained in Example 2 were used. […] Beclometasone dipropionate (BDP) having the following particle size was used: d(v0.1)=0.7 micron; d(v0.5)=1.5 micron; and d(v0.9)=2.8 micron.

Row | SMILES | Extrafine Particle Fraction <1 μm [1] | Extrafine Particle Fraction <2 μm [1] | Extrafine Particle Mass <1 μm [1] | Extrafine Particle Mass <2 μm [1] | MMAD [1] | Mid Fine particle Fraction [1] | Delivered Dose [1] | Mid Fine Particle Mass [1] | Fine Particle Mass [1] | Fine Particle Fraction [1] | d(v0.1) [2] | d(v0.5) [2] | d(v0.9) [2]
1 | C[N+]1(C)CCC(OC(=O)C(O)(c2ccccc2)C2CCCC2)C1 (racemic) [GB, glycopyrronium bromide] | 9.8% | 26.4% | 1.1 µg | 2.9 µg | 1.9 μm | 21.6% | 11.1 µg | 2.4 µg | 5.4 µg | 48.1% |  |  | 
2 | CCC(=O)OCC(=O)[C@@]1(OC(=O)CC)[C@@H](C)C[C@H]2[C@@H]3CCC4=CC(=O)C=C[C@]4(C)[C@@]3(Cl)[C@@H](O)C[C@@]21C [BDP, beclometasone dipropionate] | 13.9% | 32.1% | 12.4 µg | 28.5 µg | 1.6 μm | 17.1% | 88.5 µg | 15.2 µg | 43.6 µg | 49.3% | 0.7 micron | 1.5 micron | 2.8 micron

From US10786450B2, “Process for preparing a dry powder formulation comprising an anticholinergic, a corticosteroid and a beta-adrenergic” (CHIESI FARMACEUTICI S.p.A., priority 2017, dated 2020)
